Patent publication US20070275911A1, “Targeted Drug-Formaldehyde Conjugates and Methods of Making and Using the Same” (priority 2003, published 2007)
pIC50: −log10 of the molar value. Where two headings read alike, the source gives them in different places.

Columns and labels:
human AR = biological target: T1, human AR (Homo sapiens, UniProt P10275); test: biochemical; format: binding
T1 construct: expressed in transfected cells; host or cells: PC3/AR cells (gift of Dr. Kerry Burnstein, University of Miami); cytosolic fraction of sonicated lysate
T1 sequence (P10275 1-920): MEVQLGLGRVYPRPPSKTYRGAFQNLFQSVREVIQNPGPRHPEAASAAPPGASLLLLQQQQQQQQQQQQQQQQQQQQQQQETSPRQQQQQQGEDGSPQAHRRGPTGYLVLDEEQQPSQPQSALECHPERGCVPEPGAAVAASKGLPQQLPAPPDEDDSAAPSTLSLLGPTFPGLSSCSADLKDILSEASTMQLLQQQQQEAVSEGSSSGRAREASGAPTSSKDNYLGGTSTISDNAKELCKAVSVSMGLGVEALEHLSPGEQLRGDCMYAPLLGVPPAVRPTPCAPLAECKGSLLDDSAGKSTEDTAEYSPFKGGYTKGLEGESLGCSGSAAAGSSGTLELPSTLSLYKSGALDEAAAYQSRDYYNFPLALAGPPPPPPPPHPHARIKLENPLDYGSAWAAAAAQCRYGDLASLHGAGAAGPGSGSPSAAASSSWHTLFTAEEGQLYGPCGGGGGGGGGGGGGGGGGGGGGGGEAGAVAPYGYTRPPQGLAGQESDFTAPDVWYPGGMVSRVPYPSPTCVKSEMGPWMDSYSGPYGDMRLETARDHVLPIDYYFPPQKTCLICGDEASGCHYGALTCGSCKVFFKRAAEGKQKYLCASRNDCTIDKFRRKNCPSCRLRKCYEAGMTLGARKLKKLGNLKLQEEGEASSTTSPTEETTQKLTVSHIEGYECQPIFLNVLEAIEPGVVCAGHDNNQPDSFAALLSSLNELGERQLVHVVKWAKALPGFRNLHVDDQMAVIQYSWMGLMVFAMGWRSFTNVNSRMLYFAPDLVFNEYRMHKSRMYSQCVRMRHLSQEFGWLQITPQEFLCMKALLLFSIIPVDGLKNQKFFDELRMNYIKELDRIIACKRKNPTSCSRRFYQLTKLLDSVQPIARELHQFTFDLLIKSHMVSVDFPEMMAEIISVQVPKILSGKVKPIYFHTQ

AR-GFP receptor = format: cell-based; conditions: for inhibition of the action of 1.0 nM Mibolerone on AR-GFP: co-treatment with 1.0 nM Mibolerone
Protocol: PC3 cells were, therefore, grown in 6 well plates and transiently transfected with a plasmid containing the AR-GFP construct obtained from Dr. Arun Roy (UTHSC; San Antonio, Tex.).
This cell suspension was dispensed in 2 mL aliquots into 6-well tissue culture plates. […] To each solution was added 2 μL of a 800 μg/mL solution of the pEGFP-C2 rcAR plasmid in Millipore water. After gentle mixing, the transfection cocktail was allowed to incubate at room temperature for 40 min. […] The growth medium was again replaced with 1 mL of phenol red-free RPMI supplemented with dextran-coated charcoal-stripped FBS. Candidate AR-GFP expressing cells in each well were identified and marked before an appropriate concentrations of the test compounds were added in 10 μL of sterile DMSO.

[1] = vs 1.0 nM 3H-Mibolerone, PC3/AR cell lysate, 4° C. (Table 4, Example 3 numbering)
[2] = vs 1.0 nM 3H-Mibolerone, PC3/AR cell lysate, 4° C., 30 min (Table 3, Example 2 numbering)
[3] = relative binding affinity (Table 4, Example 3 numbering)

Row | SMILES | RBA (human AR) | nuclear translocation of AR-GFP (AR-GFP receptor; concentration not given) | pIC50 (human AR; [1]) | pIC50 (human AR; [2]) | further results
1 | CC1(C)NC(=O)N(c2ccc(C#N)c(C(F)(F)F)c2)C1=O [2f, 4-(4,4-Dimethyl-2,5-dioxo-imidazolidin-1-yl)-2-trifluoromethylbenzonitrile] | 150 | induce partial translocation | – | – | pIC50 (human AR): 8.22; RBA as fraction of nilutamide binding (human AR): 150%
2 | CCCC(=O)OCOc1ccc(COCC#CCN2C(=O)N(c3ccc(C#N)c(C(F)(F)F)c3)C(=O)C2(C)C)cc1C(N)=O [6b] | – | causing nuclear translocation of the AR upon binding | – | – | –
3 | CC1(C)C(=O)N(c2ccc(C#N)c(C(F)(F)F)c2)C(=O)N1CCOCCOCc1ccc(O)c(C(N)=O)c1 [8a, 5-(2-{2-[3-(4-Cyano-3-trifluoromethyl-phenyl)-5,5-dimethyl-2,4-dioxo-imidazolidin-1-yl]-ethoxy}-ethoxymethyl)-2-hydroxy-benzamide] | – | – | 7.11 | 7.11 | –
4 | CC1(C)C(=O)N(c2ccc(C#N)c(C(F)(F)F)c2)C(=O)N1CCOCCOCCOCc1ccc(O)c(C(N)=O)c1 [8b, 5-[2-(2-{2-[3-(4-Cyano-3-trifluoromethyl-phenyl)-5,5-dimethyl-2,4-dioxo-imidazolidin-1-yl]-ethoxy}-ethoxy)-ethoxymethyl]-2-hydroxy-benzamide] | – | – | 6.48 | 6.48 | –
5 | CC1(C)C(=O)N(c2ccc(C#N)c(C(F)(F)F)c2)C(=O)N1CC#CCOCc1ccc(O)c(C(N)=O)c1 [8c, 5-{4-[3-(4-Cyano-3-trifluoromethyl-phenyl)-5,5-dimethyl-2,4-dioxo-imidazolidin-1-yl]-but-2-ynyloxymethyl}-2-hydroxy-benzamide] | – | – | – | 7.31 | –
6 | CC1(C)C(=O)N(c2ccc(C#N)c(C(F)(F)F)c2)C(=O)N1CCCCN1CCN(CCOCc2ccc(O)c(C(N)=O)c2)CC1 [12a, 5-[2-(4-{4-[3-(4-Cyano-3-trifluoromethyl-phenyl)-5,5-dimethyl-2,4-dioxo-imidazolidin-1-yl]-butyl}-piperazin-1-yl)-ethoxymethyl]-2-hydroxy-benzamide] | <1 | does not instigate translocation | < 6.00 | – | RBA (human AR; [3]): <1; inhibition of the action of 1.0 nM Mibolerone on AR-GFP (AR-GFP receptor): not capable of inhibiting the action of 1.0 nM Mibolerone
7 | CC1(C)C(=O)N(c2ccc(C#N)c(C(F)(F)F)c2)C(=O)N1CCOCCN1CCN(CCOCc2ccc(O)c(C(N)=O)c2)CC1 [12b] | 3 | does not instigate translocation | 6.46 | 6.46 | RBA (human AR; [3]): 3; inhibition of the action of 1.0 nM Mibolerone on AR-GFP (AR-GFP receptor): not capable of inhibiting the action of 1.0 nM Mibolerone
8 | C[C@@H]1CC2=CC(=O)CC[C@@H]2[C@H]2CC[C@@]3(C)[C@@H](CC[C@]3(C)O)[C@@H]21 [Mibolerone, reference compound] | – | – | – | – | nuclear translocation of AR-GFP (AR-GFP receptor; 1.0 nM): causes nuclear translocation of the AR-GFP receptor
